Source: PubChem BioAssay AID192 (DTP/NCI, 2004)
Where “and” joins values, the source holds several entries; their conditions need not be identical. Identical values can stand only once. Inconclusive results and toxic doses are left out.

System: BDF1 mice, B16 melanoma ip, median survival T/C
Experiment: NCI In Vivo Anticancer Drug Screen. Data for tumor model B16 Melanoma (intraperitoneal) in B6D2F1 (BDF1) mice
Details: endpoint: median survival time, higher = longer survival
Outline: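 The ratio T/C compares compound-treated mice with vehicle-treated controls, using survival or tumor size as the endpoint in a transplantable tumor model.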

[1] = dose: 25.0 mg/kg/injection, schedule: Q01DX009 (ip), vehicle: Klucel (hydroxypropylcellulose) (HPC)
[2] = dose: 12.5 mg/kg/injection, schedule: Q01DX009 (ip), vehicle: saline
[3] = dose: 25.0 mg/kg/injection, schedule: Q01DX009 (ip), vehicle: saline

O=P1(N(CCCl)CCCl)NCCCO1 (centres undefined)
T/C (dose: 2.5 mg/kg/injection, schedule: Q01DX009 (ip), vehicle: saline): 102 % of control
T/C (dose: 5.0 mg/kg/injection, schedule: Q01DX009 (ip), vehicle: saline): 100 % of control
T/C (dose: 6.25 mg/kg/injection, schedule: Q01DX017 (ip), vehicle: saline): 110 % of control
T/C (dose: 6.25 mg/kg/injection, schedule: Q02DX009 (ip), vehicle: saline): 107 % of control and 108 % of control
T/C (dose: 10.0 mg/kg/injection, schedule: Q01DX005 (ip), vehicle: water): 100 % of control
T/C (dose: 10.0 mg/kg/injection, schedule: Q01DX009 (ip), vehicle: saline): 102 % of control
T/C (dose: 10.0 mg/kg/injection, schedule: Q01DX009 (ip), vehicle: water): 111 % of control
T/C (dose: 10.0 mg/kg/injection, schedule: Q04DX003 (ip), vehicle: saline): 114 % of control
T/C (dose: 12.0 mg/kg/injection, schedule: Q01DX009 (ip), vehicle: saline): 105 % of control
T/C (dose: 12.5 mg/kg/injection, schedule: Q01DX009 (ip), vehicle: water): 104 % of control
T/C (dose: 12.5 mg/kg/injection, schedule: Q02DX009 (ip), vehicle: saline): 107 % of control
T/C (dose: 15.0 mg/kg/injection, schedule: Q04DX003 (ip), vehicle: saline): 107 % of control
T/C (dose: 20.0 mg/kg/injection, schedule: Q01DX005 (ip), vehicle: water): 111 % of control
T/C (dose: 20.0 mg/kg/injection, schedule: Q01DX009 (ip), vehicle: saline): 112 % of control
T/C (dose: 20.0 mg/kg/injection, schedule: Q04DX003 (ip), vehicle: saline): 120 % of control
T/C (dose: 25.0 mg/kg/injection, schedule: Q01DX001 (ip), vehicle: saline): 103 % of control
T/C [1]: 107 % of control
T/C (dose: 25.0 mg/kg/injection, schedule: Q01DX009 (ip), vehicle: saline with Tween-80): 112 % of control
T/C (dose: 25.0 mg/kg/injection, schedule: Q01DX017 (ip), vehicle: saline): 150 % of control
T/C (dose: 25.0 mg/kg/injection, schedule: Q02DX009 (ip), vehicle: saline): 114 % of control and 122 % of control and 123 % of control
T/C (dose: 25.0 mg/kg/injection, schedule: Q04DX003 (ip), vehicle: saline): 119 % of control and 122 % of control
T/C (dose: 25.0 mg/kg/injection, schedule: Q08DX002 (ip), vehicle: saline): 117 % of control
T/C (dose: 30.0 mg/kg/injection, schedule: Q01DX009 (ip), vehicle: water): 161 % of control
T/C (dose: 30.0 mg/kg/injection, schedule: Q04DX003 (ip), vehicle: saline): 114 % of control
T/C (dose: 38.9 mg/kg/injection, schedule: Q08DX002 (ip), vehicle: saline): 116 % of control
T/C (dose: 40.0 mg/kg/injection, schedule: Q01DX005 (ip), vehicle: water): 122 % of control
T/C (dose: 40.0 mg/kg/injection, schedule: Q01DX009 (ip), vehicle: water): 172 % of control
T/C (dose: 40.0 mg/kg/injection, schedule: Q04DX003 (ip), vehicle: saline): 124 % of control
T/C (dose: 41.5 mg/kg/injection, schedule: Q04DX003 (ip), vehicle: saline): 120 % of control
T/C (dose: 50.0 mg/kg/injection, schedule: Q01DX009 (ip), vehicle: water): 159 % of control and 180 % of control
T/C (dose: 50.0 mg/kg/injection, schedule: Q01DX017 (ip), vehicle: saline): 110 % of control
T/C (dose: 50.0 mg/kg/injection, schedule: Q04DX003 (ip), vehicle: saline): 124 % of control
T/C (dose: 50.0 mg/kg/injection, schedule: Q04DX005 (ip), vehicle: saline): 162 % of control
T/C (dose: 60.0 mg/kg/injection, schedule: Q01DX005 (ip), vehicle: water): 169 % of control
T/C (dose: 72.0 mg/kg/injection, schedule: Q01DX001 (ip), vehicle: saline): 110 % of control
T/C (dose: 75.0 mg/kg/injection, schedule: Q01DX001 (ip), vehicle: Klucel (hydroxypropylcellulose) (HPC)): 156 % of control
T/C (dose: 80.0 mg/kg/injection, schedule: Q04DX003 (ip), vehicle: saline): 159 % of control
T/C (dose: 93.3 mg/kg/injection, schedule: Q04DX003 (ip), vehicle: saline): 169 % of control
T/C (dose: 100.0 mg/kg/injection, schedule: Q01DX009 (ip), vehicle: Klucel (hydroxypropylcellulose) (HPC)): 117 % of control
T/C (dose: 100.0 mg/kg/injection, schedule: Q01DX009 (ip), vehicle: saline with Tween-80): 103 % of control and 117 % of control
T/C (dose: 100.0 mg/kg/injection, schedule: Q02DX009 (ip), vehicle: saline): 91 % of control and 112 % of control
T/C (dose: 100.0 mg/kg/injection, schedule: Q04DX005 (ip), vehicle: saline): 105 % of control
T/C (dose: 100.0 mg/kg/injection, schedule: Q08DX003 (ip), vehicle: saline): 166 % of control
T/C (dose: 108.0 mg/kg/injection, schedule: Q08DX002 (ip), vehicle: saline): 161 % of control
T/C (dose: 120.0 mg/kg/injection, schedule: Q01DX001 (ip), vehicle: saline): 124 % of control
T/C (dose: 120.0 mg/kg/injection, schedule: Q04DX003 (ip), vehicle: saline): 163 % of control
T/C (dose: 140.0 mg/kg/injection, schedule: Q04DX003 (ip), vehicle: saline): 169 % of control
T/C (dose: 160.0 mg/kg/injection, schedule: Q04DX003 (ip), vehicle: saline): 191 % of control
T/C (dose: 180.0 mg/kg/injection, schedule: Q08DX002 (ip), vehicle: saline): 192 % of control
T/C (dose: 200.0 mg/kg/injection, schedule: Q01DX001 (ip), vehicle: water): 121 % of control
T/C (dose: 200.0 mg/kg/injection, schedule: Q04DX003 (ip), vehicle: saline): 111 % of control
T/C (dose: 210.0 mg/kg/injection, schedule: Q04DX003 (ip), vehicle: saline): 205 % of control
T/C (dose: 300.0 mg/kg/injection, schedule: Q01DX001 (ip), vehicle: Klucel (hydroxypropylcellulose) (HPC)): 100 % of control
T/C (dose: 300.0 mg/kg/injection, schedule: Q08DX002 (ip), vehicle: saline): 117 % of control and 220 % of control and 226 % of control
T/C (dose: 333.0 mg/kg/injection, schedule: Q01DX001 (ip), vehicle: saline): 155 % of control

CSCS(=O)C[C@H](CO)NC(=O)/C=C/c1c(C)[nH]c(=O)[nH]c1=O (some centres undefined)
T/C (dose: 0.06 mg/kg/injection, schedule: Q01DX009 (ip), vehicle: Klucel (hydroxypropylcellulose) (HPC)): 95 % of control
T/C (dose: 0.08 mg/kg/injection, schedule: Q01DX009 (ip), vehicle: water): 99 % of control
T/C (dose: 0.15 mg/kg/injection, schedule: Q01DX009 (ip), vehicle: water): 105 % of control
T/C (dose: 0.3 mg/kg/injection, schedule: Q01DX009 (ip), vehicle: water): 108 % of control
T/C (dose: 0.6 mg/kg/injection, schedule: Q01DX009 (ip), vehicle: water): 91 % of control
T/C (dose: 0.98 mg/kg/injection, schedule: Q04DX003 (ip), vehicle: saline): 94 % of control
T/C (dose: 1.4 mg/kg/injection, schedule: Q04DX003 (ip), vehicle: saline): 113 % of control
T/C (dose: 2.0 mg/kg/injection, schedule: Q04DX003 (ip), vehicle: saline): 101 % of control

CCCC(OC(C)=O)C(Cl)(Cl)Cl (centres undefined)
T/C [1]: 90 % of control
T/C (dose: 50.0 mg/kg/injection, schedule: Q01DX009 (ip), vehicle: Klucel (hydroxypropylcellulose) (HPC)): 100 % of control

CN1CCN(CCCN2c3ccccc3Sc3ccc(C(F)(F)F)cc32)CC1
T/C (dose: 0.58 mg/kg/injection, schedule: Q01DX009 (ip), vehicle: saline): 117 % of control
T/C (dose: 0.78 mg/kg/injection, schedule: Q01DX009 (ip), vehicle: saline): 102 % of control
T/C (dose: 1.17 mg/kg/injection, schedule: Q01DX009 (ip), vehicle: saline): 112 % of control
T/C (dose: 1.56 mg/kg/injection, schedule: Q01DX009 (ip), vehicle: saline): 102 % of control
T/C (dose: 2.34 mg/kg/injection, schedule: Q01DX009 (ip), vehicle: saline): 112 % of control
T/C (dose: 3.12 mg/kg/injection, schedule: Q01DX009 (ip), vehicle: saline): 112 % of control and 110 % of control
T/C (dose: 4.68 mg/kg/injection, schedule: Q01DX009 (ip), vehicle: saline): 97 % of control
T/C (dose: 6.25 mg/kg/injection, schedule: Q01DX009 (ip), vehicle: saline): 102 % of control and 95 % of control
T/C (dose: 9.37 mg/kg/injection, schedule: Q01DX009 (ip), vehicle: saline): 115 % of control
T/C [2]: 105 % of control and 102 % of control
T/C [3]: 102 % of control

O=C1C=C(C2OC(CO)C(O)C2O)C(=O)N1 (centres undefined)
T/C (dose: 6.25 mg/kg/injection, schedule: Q01DX009 (ip), vehicle: Klucel (hydroxypropylcellulose) (HPC)): 107 % of control
T/C (dose: 12.5 mg/kg/injection, schedule: Q01DX009 (ip), vehicle: Klucel (hydroxypropylcellulose) (HPC)): 99 % of control and 102 % of control

O=[n+]1ccn2cc3ccccc3cc2c1
T/C (dose: 3.75 mg/kg/injection, schedule: Q01DX009 (ip), vehicle: saline): 102 % of control
T/C (dose: 7.5 mg/kg/injection, schedule: Q01DX009 (ip), vehicle: saline): 105 % of control

COC(OC(CO)C(O)S(=O)(=O)O)C(O)S(=O)(=O)O (centres undefined)
T/C [2]: 104 % of control
T/C [3]: 107 % of control
T/C (dose: 50.0 mg/kg/injection, schedule: Q01DX009 (ip), vehicle: saline): 111 % of control
T/C (dose: 100.0 mg/kg/injection, schedule: Q01DX009 (ip), vehicle: saline): 119 % of control
